In ChEMBL document CHEMBL1821652, “QSAR models for predicting enzymatic hydrolysis of new chemical entities in 'soft-drug' design” (Bioorg Med Chem, 2009):
Residues, ends and D or L forms follow the SMILES beside them.

How the values were obtained:
[1] = test system: Plasma; assay: (§1) Half life in human plasma; format: ADME, cell-free
[2] = as §1; format: ADME, cell-free

SMILES | t1/2 [1] [h] | half-life [2] [h]
COC(=O)[C@H](Cc1ccc(OC(C)=O)c(OC(C)=O)c1)NC(=O)N[C@@H](Cc1ccc(OC(C)=O)c(OC(C)=O)c1)C(=O)OC | 1.698 | –
COC(=O)[C@H](Cc1ccc(OC(C)=O)c(OC(C)=O)c1)NC(=O)CCCC(=O)N[C@@H](Cc1ccc(OC(C)=O)c(OC(C)=O)c1)C(=O)OC | 1.05 | –
CCC[C@@H]1O[C@@H]2C[C@H]3[C@@H]4C[C@H](F)C5=CC(=O)C=C[C@]5(C)[C@@]4(F)[C@@H](O)C[C@]3(C)[C@]2(S[C@H]2CCOC2=O)O1 | – | 0.0667
CCC[C@@H]1O[C@@H]2C[C@H]3[C@@H]4C[C@H](F)C5=CC(=O)CC[C@]5(C)[C@@]4(F)[C@@H](O)C[C@]3(C)[C@]2(S[C@@H]2CCOC2=O)O1 | – | 0.0833
Cc1nccn1CCOC(=O)[C@H](C)c1ccc(CC(C)C)cc1 | – | 0.0867
CC(C)Cc1ccc([C@H](C)C(=O)OCC(=O)N(C)C)cc1 | – | 0.117
C[C@H](C(=O)OCC(=O)N(C)C)c1ccc(-c2ccccc2)c(F)c1 | – | 0.183
C[C@@H](C(=O)OCCn1ccnc1)c1ccc(-c2ccccc2)c(F)c1 | – | 0.3
CC(C)Cc1ccc([C@@H](C)C(=O)OCCn2ccnc2)cc1 | – | 0.317
Cc1nccn1CCOC(=O)[C@H](C)c1ccc(-c2ccccc2)c(F)c1 | – | 0.633
Cc1nccn1CCOC(=O)[C@@H](C)c1ccc(CC(C)C)cc1 | – | 2.25
Cc1nccn1CCOC(=O)[C@@H](C)c1ccc(-c2ccccc2)c(F)c1 | – | 5.92
C[C@H](C(=O)OCCn1ccnc1)c1ccc(-c2ccccc2)c(F)c1 | – | 7.42
CC(C)Cc1ccc([C@H](C)C(=O)OCCn2ccnc2)cc1 | – | 16
CCOC(=O)[C@H](C)c1ccc(CC(C)C)cc1 | – | 93
CCOC(=O)[C@@H](C)c1ccc(CC(C)C)cc1 | – | 265
Cc1ncc([N+](=O)[O-])n1CCOC(=O)CN1CCC(c2ccccc2)CC1 | – | 2.3

SMILES | t1/2 [1] [h] | half-life [2] [h]
COC(=O)[C@H](Cc1ccc(OC(C)=O)c(OC(C)=O)c1)NC(=O)CCCC[C@@H]1CCSS1 | – | 0.88
CC(=O)Oc1ccc(CCNC(=O)CCCC[C@@H]2CCSS2)cc1OC(C)=O | – | 0.172
COC(=O)[C@H](Cc1ccc(OC(C)=O)c(OC(C)=O)c1)NC(=O)CCC(=O)N[C@@H](Cc1ccc(OC(C)=O)c(OC(C)=O)c1)C(=O)OC | 0.232 | –
COC(=O)[C@H](Cc1ccc(OC(C)=O)c(OC(C)=O)c1)NC(=O)CCCCC(=O)N[C@@H](Cc1ccc(OC(C)=O)c(OC(C)=O)c1)C(=O)OC | 0.13 | –
O=C(CCCC[C@@H]1CCSS1)NCCc1ccc(O)c(O)c1 | – | 1.35
COC(=O)[C@H](Cc1ccc(O)c(O)c1)NC(=O)CCCC[C@@H]1CCSS1 | – | 1.63
NCC(=O)N[C@@H](Cc1ccccc1)C(=O)O (H-Gly-Phe-OH) | – | 1.19
COC(=O)[C@H](Cc1ccccc1)NC(=O)CN.Cl (H-Gly-Phe-OMe) | – | 0.167
CC(C)[C@H](N)C(=O)OCCOCn1cnc2c(=O)[nH]c(N)nc21 (stereo in doubt; 160) [VALACYCLOVIR] | – | 5.2
CC(C)[C@H](N)C(=O)OCCOCn1cnc2c(=O)[nH]c(N)nc21 (stereo in doubt; 167) [VALACYCLOVIR] | 7.13 | –
CC(C)C[C@@H](NC(=O)[C@H](Cc1ccccc1)NC(=O)CNC(=O)[C@@H](C)NC(=O)[C@@H](N)Cc1ccc(O)cc1)C(=O)O [DADLE] | – | > 24
O=C(CCCCCCCCC(=O)Oc1ccc2c3c1O[C@H]1[C@@H](O)CC[C@@]4(O)[C@@H](C2)N(CC2CCC2)CC[C@]314)Oc1ccc2c3c1O[C@H]1[C@@H](O)CC[C@@]4(O)[C@@H](C2)N(CC2CCC2)CC[C@]314 [DINALBUPHINE SEBACATE] | – | 0.09
CC(C)C[C@H](NC(=O)[C@H](Cc1ccccc1)NC(=O)CNC(=O)CNC(=O)[C@@H](N)Cc1ccc(O)cc1)C(=O)O [ENKEPHALIN] | 13.5 | –
CCOC(=O)[C@@H](N)Cc1ccc(O)c(O)c1 [ETILEVODOPA] | – | 1.67
COc1ccccc1OC(=O)c1ccccc1Nc1cccc(C)c1C [MEFENAMIC ACID GUAIACOL ESTER] | – | 15.2
CC(C)[N+](C)(CCOC(=O)C1c2ccccc2Oc2ccccc21)C(C)C [PROPANTHELINE] | 6.17 | –
CC(=O)N(c1onc(C)c1C)S(=O)(=O)c1ccc(N)cc1 [SULFISOXAZOLE ACETYL] | – | 0.005
